Read-outs that look alike come from different tables or passages of the source.
Key:
[1] = system: genotype 1b-Con1 subgenomic replicon cell line; assay: microbe, parasite or virus in culture; format: cell-based, HCV; conditions: Hepatitis C virus, 72 h, read-out: EC50 1b
[2] = system: genotype 1a-H77 subgenomic replicon cell line; assay: microbe, parasite or virus in culture; format: cell-based, HCV; conditions: Hepatitis C virus, 72 h, read-out: EC50 1a
[3] = target: T1, HCV polymerase 1B (Δ21 NS5B) (Hepatitis C virus genotype 1b, UniProt P26663); assay: biochemical
T1 construct: 20 to 50nM Δ21 NS5B
T1 sequence (P26663 2420-2989, stated change not applied): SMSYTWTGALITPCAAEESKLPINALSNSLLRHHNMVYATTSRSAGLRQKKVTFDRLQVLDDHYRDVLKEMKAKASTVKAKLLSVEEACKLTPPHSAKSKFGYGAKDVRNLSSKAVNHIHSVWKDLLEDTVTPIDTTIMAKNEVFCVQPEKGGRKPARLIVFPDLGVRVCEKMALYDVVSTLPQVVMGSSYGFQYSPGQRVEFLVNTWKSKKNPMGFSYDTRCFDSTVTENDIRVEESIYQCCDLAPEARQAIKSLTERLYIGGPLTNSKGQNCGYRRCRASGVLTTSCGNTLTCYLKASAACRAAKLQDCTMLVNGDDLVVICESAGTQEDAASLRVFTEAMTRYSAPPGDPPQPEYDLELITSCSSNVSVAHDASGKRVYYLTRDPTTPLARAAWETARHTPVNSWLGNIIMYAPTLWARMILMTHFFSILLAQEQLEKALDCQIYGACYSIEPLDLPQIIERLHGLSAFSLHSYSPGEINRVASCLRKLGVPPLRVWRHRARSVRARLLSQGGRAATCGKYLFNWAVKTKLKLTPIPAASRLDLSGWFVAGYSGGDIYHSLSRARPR
Experimental: (§1) Either two-fold serial dilutions (fractional inhibition assay) or a narrower range of dilutions spanning the IC50 of the inhibitor (tight binding assay) of the inhibitors were incubated with 20mM Tris-Cl pH 7.4, 2 mM MnCl2, 1 mM dithiothreitol, 1 mM ethylene diamine tetraacetic acid (EDTA), 60 to 125μM GTP and 20 to 50nM Δ21 NS5B (HCV Strain 1B (BK, Genbank accession number M58335, or H77, Genbank accession number AF011751)) for 15min at room temperature. The reaction was initiated by the addition of 20μM CTP, 20μM ATP, 1μM ^3H-UTP (10mCi/umol), 5nM template RNA and 0.1 U/μl RNase inhibitor (RNasin, Promega), and allowed to proceed for 2 to 4h at room temperature. Reaction volume was 50μl. The reaction was terminated by the addition of 1 volume of 4mM spermine in 10mM Tris-Cl pH 8.0, 1mM EDTA. After incubation for at least 15 min at room temperature, the precipitated RNA was captured by filtering through a GF/B filter (Millipore) in a 96 well format. The filter plate was washed three times with 200μl each of 2mM spermine, 10mM Tris-Cl pH 8.0, lmM EDTA, and 2 times with ethanol. After air-drying, 30μl of Microscint 20 scintillation cocktail (Packard) was added to each well, and the retained cpm were determined by scintillation counting. […] Retained cpm were plotted vs. inhibitor concentration and fit to equation 1 using non-linear regression (ref. 1) to obtain the IC50 values: Retained cpm=A[sqrt{(IC50+It−Et)^2+4*IC50*Et}−([…])]
Ref. Morrison, J. F. and S. R. Stone. 1985. Approaches to the study and analysis of the inhibition of enzymes by slow- and tight-binding inhibitors. Comments Mol. Cell. Biophys. 2: 347-368.
(§2) The sequence of the template RNA used was: 5′-[…]-3′

[4] = target: T2, HCV polymerase 1A (Δ21 NS5B) (Hepatitis C virus genotype 1a, UniProt P27958); assay: HCV Polymerase Inhibition Assay (1a); format: biochemical
T2 construct: 20 to 50nM Δ21 NS5B
T2 sequence (P27958 2421-2990, stated change not applied): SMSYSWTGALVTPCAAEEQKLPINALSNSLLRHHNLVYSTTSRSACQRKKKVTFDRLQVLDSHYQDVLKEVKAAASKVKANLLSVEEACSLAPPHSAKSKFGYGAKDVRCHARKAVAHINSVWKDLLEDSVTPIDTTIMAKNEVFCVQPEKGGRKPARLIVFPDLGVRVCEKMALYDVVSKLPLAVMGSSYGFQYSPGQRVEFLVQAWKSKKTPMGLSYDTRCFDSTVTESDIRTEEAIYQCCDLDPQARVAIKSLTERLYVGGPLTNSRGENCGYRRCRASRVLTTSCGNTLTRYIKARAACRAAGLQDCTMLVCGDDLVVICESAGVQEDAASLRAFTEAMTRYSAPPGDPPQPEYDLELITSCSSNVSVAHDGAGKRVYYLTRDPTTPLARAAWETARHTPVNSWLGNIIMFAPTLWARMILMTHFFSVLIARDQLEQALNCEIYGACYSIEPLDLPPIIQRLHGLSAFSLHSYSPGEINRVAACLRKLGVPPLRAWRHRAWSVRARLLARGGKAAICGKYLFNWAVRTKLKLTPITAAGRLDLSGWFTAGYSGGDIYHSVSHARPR
Experimental: as §1, with “The” for “Either two-fold serial dilutions (fractional inhibition assay) or a narrower range of dilutions spanning the IC50 of the inhibitor (tight binding assay) of the inhibitors were incubated with 20mM Tris-Cl pH 7.4, 2 mM MnCl2, 1 mM dithiothreitol, 1 mM ethylene diamine tetraacetic acid (EDTA), 60 to 125μM GTP and 20 to 50nM Δ21 NS5B (HCV Strain 1B (BK, Genbank accession number M58335, or H77, Genbank accession number AF011751)) for 15min at room temperature. The”
Ref. Morrison, J. F. and S. R. Stone. […] Approaches to the study and analysis of the inhibition of enzymes by slow- and tight-binding inhibitors. Comments Mol. Cell. Biophys.
as §2

Compound | EC50 [1] [nM] | EC50 [2] [nM] | other results
COc1c(-c2ccc3c(c2)CC=C3CNS(C)(=O)=O)cc(-n2ccc(=O)[nH]c2=O)cc1-c1ccco1 [IB-L0-2.65] | 10 to 100 | 100 to 1000 | –
COc1c(-c2ccoc2)cc(-n2ccc(=O)[nH]c2=O)cc1-c1ccc2c(c1)CC=C2CNS(C)(=O)=O [IB-L0-2.67] | 10 to 100 | 100 to 1000 | –
COc1c(-c2ccc3c(c2)CC[C@H]3CNS(C)(=O)=O)cc(-n2ccc(=O)[nH]c2=O)cc1C(C)(C)C (single isomer, unassigned) [IB-L0-2.15] | 10 to 100 | 100 to 1000 | –
COc1c(-c2ccc3c(c2)CCC3CNS(C)(=O)=O)cc(-n2ccc(=O)[nH]c2=O)cc1C(C)(C)C (stereo not drawn) [IB-L0-2.17, N-((5-(3-tert-butyl-5-(2,4-dioxo-3,4-dihydropyrimidin-1(2H)-yl)-2-methoxyphenyl)-2,3-dihydro-1H-inden-1-yl)methyl)methanesulfonamide] | < 10 | 10 to 100 | –
COc1c(-c2ccc3c(c2)CC[C@H]3C(C)(C)NS(C)(=O)=O)cc(-n2ccc(=O)[nH]c2=O)cc1C(C)(C)C (single isomer, unassigned) [IB-L0-2.37] | 100 to 1000 | > 1000 | –
COc1c(-c2ccc3nc(NC(C)=O)sc3c2)cc(-n2ccc(=O)[nH]c2=O)cc1C(C)(C)C [IB-L0-2.49, N-(6-(3-tert-butyl-5-(2,4-dioxo-3,4-dihydropyrimidin-1(2H)-yl)-2-methoxyphenyl)benzo[d]thiazol-2-yl)acetamide] | – | – | IC50 [3]: > 1000 nM; IC50 [4]: > 1000 nM
COc1c(-c2ccc3c(c2)CC=C3CNS(C)(=O)=O)cc(-n2ccc(=O)[nH]c2=O)cc1-c1cccs1 [IB-L0-2.63] | 10 to 100 | 100 to 1000 | –
COc1c(-c2ccc3c(CNS(C)(=O)=O)csc3c2)cc(-n2ccc(=O)[nH]c2=O)cc1C(C)(C)C [IB-L0-2.11] | < 10 | 10 to 100 | –
COc1c(-c2ccc3c(CN(C)S(C)(=O)=O)csc3c2)cc(-n2ccc(=O)[nH]c2=O)cc1C(C)(C)C [IB-L0-2.21] | 10 to 100 | 100 to 1000 | –
COc1c(-c2ccc3c(c2)CCC3NS(C)(=O)=O)cc(-n2ccc(=O)[nH]c2=O)cc1C(C)(C)C (stereo not drawn) [IB-L0-2.44, N-(5-(3-tert-butyl-5-(2,4-dioxo-3,4-dihydropyrimidin-1(2H)-yl)-2-methoxyphenyl)-2,3-dihydro-1H-inden-1-yl)methanesulfonamide] | > 1000 | > 1000 | –
COc1c(-c2ccc3cc(NS(C)(=O)=O)ccc3n2)cc(-n2ccc(=O)[nH]c2=O)cc1C(C)(C)C [IB-L0-2.48, N-(2-(3-tert-butyl-5-(2,4-dioxo-3,4-dihydropyrimidin-1(2H)-yl)-2-methoxyphenyl)quinolin-6-yl)methanesulfonamide] | – | – | IC50 [3]: > 1000 nM; IC50 [4]: > 1000 nM
COC(=O)NN=C1CCc2cc(-c3cc(-n4ccc(=O)[nH]c4=O)cc(C(C)(C)C)c3OC)ccc21 [IB-L0-2.24, methyl 2-(5-(3-tert-butyl-5-(2,4-dioxo-3,4-dihydropyrimidin-1 (2H)-yl)-2-methoxyphenyl)-2,3-dihydro-1H-inden-1-ylidene)hydrazinecarboxylate] | 10 to 100 | 10 to 100 | –
COc1c(-c2ccc3c(CNS(C)(=O)=O)coc3c2)cc(-n2ccc(=O)[nH]c2=O)cc1C(C)(C)C [IB-L0-2.18] | 10 to 100 | 100 to 1000 | –
CC(C)(C)c1cc(-n2ccc(=O)[nH]c2=O)cc(-c2ccc3c(CNS(C)(=O)=O)csc3c2)c1Cl [IB-L0-2.35, N-((6-(3-tert-butyl-2-chloro-5-(2,4-dioxo-3,4-dihydropyrimidin-1(2H)-yl)phenyl)benzo [b]thiophen-3-yl)methyl)methanesulfonamide] | 100 to 1000 | > 1000 | –
COc1c(-c2ccc3c(c2)CCC3C(=O)NS(C)(=O)=O)cc(-n2ccc(=O)[nH]c2=O)cc1C(C)(C)C (stereo not drawn) [IB-L0-2.34, 5-(3-tert-butyl-5-(2,4-dioxo-3,4-dihydropyrimidin-1(2H)-yl)-2-methoxyphenyl)-N-(methylsulfonyl)-2,3-dihydro-1H-indene-1-carboxamide] | 100 to 1000 | > 1000 | –
COc1c(-c2ccc3c(c2)CCC3(C)CNS(C)(=O)=O)cc(-n2ccc(=O)[nH]c2=O)cc1C(C)(C)C (stereo not drawn) [IB-L0-2.25, N-((5-(3-tert-butyl-5-(2,4-dioxo-3,4-dihydropyrimidin-1(2H)-yl)-2-methoxyphenyl)-1-methyl-2,3-dihydro-1H-inden-1-yl)methyl)methane sulfonamide] | 10 to 100 | 100 to 1000 | –
N,N′-(6,6′-(5-(2,4-dioxo-3,4-dihydropyrimidin-1(2H)-yl)-2-methoxy-1,3-phenylene) bis(naphthalene-6,2-diyl))dimethanesulfonamide [IB-L0-2.76] | – | – | IC50 ([3]; HCV polymerase 1b, read-out: IC50 1b): > 1000 nM; IC50 ([4]; HCV polymerase 1a, read-out: IC50 1a): 100 to 1000 nM
COc1c(-c2ccc3c(c2)CCC3=O)cc(-n2ccc(=O)[nH]c2=O)cc1C(C)(C)C [IB-L0-2.50, 1-(3-tert-butyl-4-methoxy-5-(1-oxo-2,3-dihydro-1H-inden-5-yl)phenyl)pyrimidine-2,4(1H,3H)-dione] | 100 to 1000 | 100 to 1000 | –
COc1c(-c2ccc3c(c2)CC[C@@H]3C(C)(C)NS(C)(=O)=O)cc(-n2ccc(=O)[nH]c2=O)cc1C(C)(C)C (single isomer, unassigned) [IB-L0-2.22] | 10 to 100 | 100 to 1000 | –
CC(C)(C)c1cc(-c2ccc3c(c2)CC/C3=N\NS(C)(=O)=O)cc(-n2ccc(=O)[nH]c2=O)c1 [IB-L0-2.7, (E)-N-(5-(3-tert-butyl-5-(2,4-dioxo-3,4-dihydropyrimidin-1(2H)-yl)phenyl)-2,3-dihydro-1H-inden-1-ylidene)methanesulfonohydrazide] | 10 to 100 | 100 to 1000 | –
COc1c(-c2ccsc2)cc(-n2ccc(=O)[nH]c2=O)cc1-c1ccc2c(c1)CC=C2CNS(C)(=O)=O [IB-L0-2.62] | 10 to 100 | 100 to 1000 | –
COc1c(-c2ccc3c(c2)CC[C@@H]3CNS(C)(=O)=O)cc(-n2ccc(=O)[nH]c2=O)cc1C(C)(C)C (single isomer, unassigned) [IB-L0-2.9] | < 10 | < 10 | –
COc1c(-c2ccc3c(c2)CC=C3CNS(C)(=O)=O)cc(-n2ccc(=O)[nH]c2=O)cc1C(C)(C)C [IB-L0-2.13] | < 10 | 10 to 100 | –
COc1c(-c2ccc3c(c2)CCC3(F)CNS(C)(=O)=O)cc(-n2ccc(=O)[nH]c2=O)cc1C(C)(C)C (stereo not drawn) [IB-L0-2.12, N-((5-(3-tert-butyl-5-(2,4-dioxo-3,4-dihydropyrimidin-1(2H)-yl)-2-methoxyphenyl)-1-fluoro-2,3-dihydro-1H-inden-1-yl)methyl)methanesulfonamide] | < 10 | 10 to 100 | –
COc1c(-c2ccc3cc(CNS(C)(=O)=O)sc3c2)cc(-n2ccc(=O)[nH]c2=O)cc1C(C)(C)C [IB-L0-2.40] | 100 to 1000 | > 1000 | –
COc1c(-c2ccc3c(c2)CCC3O)cc(-n2ccc(=O)[nH]c2=O)cc1C(C)(C)C (stereo not drawn) [IB-L0-2.36, 1-(3-tert-butyl-5-(1-hydroxy-2,3-dihydro-1H-inden-5-yl)-4-methoxyphenyl)pyrimidine-2,4(1H,3H)-dione] | 10 to 100 | 100 to 1000 | –
COc1c(-c2ccc3c(c2)CCC3C(C)(C)NS(C)(=O)=O)cc(-n2ccc(=O)[nH]c2=O)cc1C(C)(C)C (stereo not drawn) [IB-L0-2.29, N-(2-(5-(3-tert-butyl-5-(2,4-dioxo-3,4-dihydropyrimidin-1(2H)-yl)-2-methoxyphenyl)-2,3-dihydro-1H-inden-1-yl)propan-2-yl)methanesulfonamide] | 10 to 100 | 100 to 1000 | –

Source: patent US8501238B2, “Anti-infective agents and uses thereof” (priority 2007, dated 2013)
